Laboratory results taken from US20250186463A1, “ABIRATERONE DECANOATE PRODRUGS AND USE IN THERAPY” (PROPELLA THERAPEUTICS, INC., priority 2022, published 2025).

Test system: Prostate Specific Antigen (PSA)
Experiment: Phase 1/2a study: PSA response
Type: in vivo, human
Conditions: for Undetectable PSA: defined as PSA < 0.2 ng/mL
Protocol: This is a Phase 1/2a, Open-label, Multicenter Study of Intramuscular Abiraterone Decanoate Depot in Patients with Advanced Prostate Cancer.
Formulations and dosing regimen: The formulation used in the study (abiraterone decanoate for intramuscular [i.m.] injection) is a solution formulation of abiraterone decanoate at a concentration of 180 mg/mL and will be provided as a 10 mL vial containing 990 mg of abiraterone decanoate in 5.5 mL of solution. See further details of the formulations in Example 2 (for each milliliter: Abiraterone Decanoate, about 180 mg/mL; Benzyl Alcohol, about 100 mg/mL; Benzyl Benzoate, about 200 mg/mL; and Corn oil, q.s. to 1 mL). Abiraterone Decanoate will be administered as an i.m. injection every 84 days (±3 days). Dose escalation will proceed with a modified Fibonacci sequence. Based on emerging data, intermediate doses may be evaluated.
Study Design: This is a Phase 1/2a, Open-label, Multicenter Study of Intramuscular Abiraterone Decanoate Depot in Patients with Advanced Prostate Cancer. In Phase 1, all patients will receive i.m. Abiraterone Decanoate depot in 84-day treatment cycles combined with daily oral prednisone or dexamethasone. In Phase 2a, patients will be randomized 1:1 and treated with i.m. Abiraterone Decanoate depot in 84-day treatment cycles in combination with dexamethasone (Arm A) or abiraterone acetate daily+prednisone (Arm B). In both Phases, patients will undergo scheduled periodic assessments of serum testosterone levels. Participants may continue treatment until they meet any discontinuation criteria outlined in the protocol.
Pharmacodynamic Analysis: Determination of Prostate Specific Antigen (PSA), serum testosterone, dehydroepiandrosterone (DHEA), dehydroepiandrosterone sulfate (DHEA-S), androstenedione, dihydrotestosterone (DHT), progesterone, cortisol, adrenocorticotropic hormone (ACTH), corticosterone, 11-dexoycorticosterone (11-DOC) and 11-deoxycortisol.
Based on the available data, the recommended dose for Phase 2 is about 1260 mg abiraterone decanoate once every three months (12 weeks). All cohorts 1 and 2 in this clinical study were treated with prednisone, 5 mg orally once or twice daily; and all cohorts 3-5 were treated with dexamethasone, 0.5 mg orally once daily. The results shown herein for these cohorts should be understood accordingly.
PSA Levels: the median baseline PSA level was 3.01 ng/mL. […] The table below further summarizes the reduction of PSA observed without elevated progesterone level.

SMILES: CCCCCCCCCC(=O)O[C@H]1CC[C@@]2(C)C(=CC[C@@H]3[C@@H]2CC[C@]2(C)C(c4cccnc4)=CC[C@@H]32)C1 [abiraterone decanoate]
- percentages of patients achieving PSA50 and 90 versus those reported for abiraterone acetate (AA) and enzalutamide (Enza) (Chemo-naïve CRPC, FIGS. 9A and 9B): much higher
- PSA at follow-up (Patient 1, 180 mg, CSPC, enzalutamide started after study): below LLOQ
- patients with PSA50 (cohorts 3, 4, and 5): 15 out of 16
- patients with PSA90 (cohorts 3, 4, and 5): 8 out of 16
- Best PSA Response (patient 02-1403, Cohort 4, 1260 mg, mCRPC, Visit C4D28): −98%
- Undetectable PSA (patient 02-1403, Cohort 4, 1260 mg, mCRPC): No
- Best PSA Response (patient 02-1405, Cohort 4, 1260 mg, mCRPC, Visit C1D56): −94%
- Undetectable PSA (patient 02-1405, Cohort 4, 1260 mg, mCRPC): No
- Best PSA Response (patient 02-1504, Cohort 5, 1800 mg, mCRPC, Visit C1D28): −92.4
- Undetectable PSA (patient 02-1504, Cohort 5, 1800 mg, mCRPC): No
- Best PSA Response (patient 02-1505, Cohort 5, 1800 mg, mCSPC, Visit C1D84): −98%
- Undetectable PSA (patient 02-1505, Cohort 5, 1800 mg, mCSPC): No
- Best PSA Response (patient 04-1406, Cohort 4, 1260 mg, mCSPC, Visit C1D56): −82%
- Undetectable PSA (patient 04-1406, Cohort 4, 1260 mg, mCSPC): No
- Best PSA Response (patient 04-1503, Cohort 5, 1800 mg, mCSPC, Visit C1D84): −67%
- Undetectable PSA (patient 04-1503, Cohort 5, 1800 mg, mCSPC): Yes
- Best PSA Response (patient 04-1506, Cohort 5, 1800 mg, mCRPC, Visit C1D28): −54%
- Undetectable PSA (patient 04-1506, Cohort 5, 1800 mg, mCRPC): No
- Best PSA Response (patient 06-1401, Cohort 4, 1260 mg, mCRPC, Visit C3D84): −99.97%
- Undetectable PSA (patient 06-1401, Cohort 4, 1260 mg, mCRPC): Yes
- Best PSA Response (patient 06-1402, Cohort 4, 1260 mg, mCRPC, Visit C4D28): −93%
- Undetectable PSA (patient 06-1402, Cohort 4, 1260 mg, mCRPC): No
- Best PSA Response (patient 06-1404, Cohort 4, 1260 mg, mCSPC, Visit C2D84): −67%
- Undetectable PSA (patient 06-1404, Cohort 4, 1260 mg, mCSPC): Yes
- Best PSA Response (patient 06-1501, Cohort 5, 1800 mg, mCRPC, Visit C1D84): 48%
- Undetectable PSA (patient 06-1501, Cohort 5, 1800 mg, mCRPC): No
- Best PSA Response (patient 06-1502, Cohort 5, 1800 mg, mCSPC, Visit C2D84): −99.6%^
- Undetectable PSA (patient 06-1502, Cohort 5, 1800 mg, mCSPC): Yes
